From patent US3974140A, “Ureidoacetamido-penicillins” (Bayer Aktiengesellschaft, priority 1970, dated 1976)
Where “and” joins values, the source holds several entries; their conditions need not be identical. Equal values may be shown once.

Columns and labels:
[1] = Acute toxicity (LD50), intravenous injection into the vein of the tail; format: in vivo; settings: for LD50: mouse, in vivo, iv
Excerpt: Acute toxicity (LD50) in white mice after
intravenous injection into the vein of the […]

Staph. aureus 133 = test: MIC, liquid medium test tube series dilution test; format: cell-based, Staphylococcus aureus; settings: Staph. aureus 133, 24 hours, 37°C
Procedure, shortened: (§1)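 In this in vitro test, growth inhibition is judged by absence of turbidity across a dilution series in complete nutrient broth. Readings are made after 24 hours at 37°C, with values given in units/ml.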

E. coli 14 = test: MIC, liquid medium test tube series dilution test; format: cell-based; settings: E. coli 14, 24 hours, 37°C
Procedure, shortened: as §1

Psdm. aerug. Walter = test: MIC, liquid medium test tube series dilution test; format: cell-based, Pseudomonas aerug.; settings: 24 hours, 37°C
Procedure, shortened: as §1

Psdm. aerug. Bonn = test: MIC, liquid medium test tube series dilution test; format: cell-based, Pseudomonas aerug.; settings: 24 hours, 37°C
Procedure, shortened: as §1

E. coli 183/58 = test: MIC, liquid medium test tube series dilution test; format: cell-based; settings: E. coli 183/58, 24 hours, 37°C
Procedure, shortened: as §1

[2] = tested on: Streptoc. faec. ATCC 9790; test: MIC, liquid medium test tube series dilution test; format: cell-based; settings: Strep. faec. (Enterococcus) ATCC 9790, 24 hours, 37°C
Procedure, shortened: as §1

E. coli C 165 = test: MIC, liquid medium test tube series dilution test; format: cell-based; settings: E. coli C 165, 24 hours, 37°C
Procedure, shortened: as §1

Klebsiella 63 = test: MIC, liquid medium test tube series dilution test; format: cell-based; settings: Klebsiella 63, 24 hours, 37°C
Procedure, shortened: as §1

E. coli A 261 = test: MIC, liquid medium test tube series dilution test; format: cell-based; settings: E. coli A 261, 24 hours, 37°C
Procedure, shortened: as §1

Klebsiella K 10 = test: MIC, liquid medium test tube series dilution test; format: cell-based; settings: Klebsiella K 10, 24 hours, 37°C
Procedure, shortened: as §1

Proteus vulg. 1017 = test: MIC, liquid medium test tube series dilution test; format: cell-based, Proteus vulgaris; settings: Proteus vulg. 1017, 24 hours, 37°C
Procedure, shortened: as §1

Proteus vulg. 3400 = test: MIC, liquid medium test tube series dilution test; format: cell-based, Proteus vulgaris; settings: Proteus vulg. 3400, 24 hours, 37°C
Procedure, shortened: as §1

[3] = tested on: Gram-negative and Gram-positive bacteria; test: Antibacterial effect, general statements; settings: MIC comparison
Staph. aureus 1777 E = test: MIC, liquid medium test tube series dilution test; format: cell-based, Staphylococcus aureus; settings: 24 hours, 37°C
Procedure, shortened: as §1

[4] = Serum level after subcutaneous administration, measured from microbiological activity against Proteus vulgaris 1017; format: in vivo, white mice
Excerpt: Serum level after subcutaneous ("s.c.") administration to white mice, in units/ml of serum, measured from the microbiological activity against Proteus vulgaris 1017 (ampicillin-resistant).

[5] = i.v. into tail vein, white mice

SMILES | MIC (Staph. aureus 133) | MIC (E. coli 14) | MIC (Psdm. aerug. Walter) | MIC (Psdm. aerug. Bonn) | MIC (E. coli 183/58) | MIC [2] | MIC (E. coli C 165) | MIC (Klebsiella 63) | MIC (E. coli A 261) [units/ml] | MIC (Klebsiella K 10) | MIC (Proteus vulg. 1017) | MIC (Proteus vulg. 3400) | Biological activity compared between penicillin (A) and penicillin (B) [3] | MIC (Staph. aureus 1777 E) [units/ml] | further results
CN(C(=O)N[C@@H](C(=O)N[C@@H]1C(=O)N2[C@@H]1SC(C)(C)[C@@H]2C(=O)O)c1ccccc1)C(=O)c1cccs1 [Example 75, Sodium D(-)-α-(3-thenoyl-(2)-3-methyl-ureido)-benzylpenicillin] | 0.8 units/ml | < 0.8 units/ml |  |  |  |  |  |  |  |  |  |  |  |  | LD50 [1]: 1500 mg/kg
C=CCOC(=O)N(C)C(=O)N[C@@H](C(=O)N[C@@H]1C(=O)N2[C@@H]1SC(C)(C)[C@@H]2C(=O)O)c1ccccc1 [Example 30, Sodium D(-)-α-(3-allyloxycarbonyl-3-methyl-ureido)-benzylpenicillin] | 0.8-4 units/ml | 4-20 units/ml | 100-500 units/ml | 100-500 units/ml | 20-100 units/ml | 20-100 units/ml | 20-100 units/ml | 20-100 units/ml and 100-500 units/ml | > 500 | 20-100 units/ml and 100-500 units/ml | 100-500 units/ml | 100-500 units/ml and 20-100 units/ml | identical within the limit of error |  | MIC (Staph. aureus 133; listed as (A) of Example 30): 0.8-4 units/ml; MIC (Psdm. aerug. Walter; listed as (A) of Example 30): 20-100 units/ml; MIC (Psdm. aerug. Bonn; listed as (A) of Example 30): 4-20 units/ml; MIC (E. coli 183/58; listed as (A) of Example 30): 4-20 units/ml; MIC (E. coli 14; listed as (A) of Example 30): 0.8-4 units/ml; MIC (E. coli C 165; listed as (A) of Example 30): 4-20 units/ml; MIC (E. coli A 261; listed as (A) of Example 30): 100-500 units/ml; MIC (Proteus vulg. 1017; listed as (A) of Example 30): 20-100 units/ml
CN(C(=O)N[C@@H](C(=O)N[C@@H]1C(=O)N2[C@@H]1SC(C)(C)[C@@H]2C(=O)O)c1ccccc1)C(=O)OC1CCCCC1 [Example 29, Sodium D(-)-α-(3-cyclohexyloxycarbonyl-3-methyl-ureido)-benzylpenicillin] | < 0.8 units/ml | 3.1 units/ml | 50 units/ml | 25 units/ml | 3.1 units/ml | 100 units/ml | 6.3 units/ml | 100 units/ml | > 400 | 200 units/ml | 12.5 units/ml | 12.5 units/ml | identical within the limit of error | 200 | MIC (Staph. aureus 1777 E; listed as (A) of Example 29): 200 units/ml; MIC (Staph. aureus 133; listed as (A) of Example 29): < 0.7 units/ml; MIC (E. coli 183/58; listed as (A) of Example 29): 3.12 units/ml; MIC (E. coli C 165; listed as (A) of Example 29): 6.25 units/ml; MIC (E. coli A 261; listed as (A) of Example 29): 400 units/ml; MIC (Klebsiella K 10; listed as (A) of Example 29): 200 units/ml; MIC (Proteus vulg. 1017; listed as (A) of Example 29): 12.5 units/ml; MIC (Proteus vulg. 3400; listed as (A) of Example 29): 12.5 units/ml
CN(C(=O)CCCl)C(=O)N[C@@H](C(=O)N[C@@H]1C(=O)N2[C@@H]1SC(C)(C)[C@@H]2C(=O)O)c1ccccc1 [Example 64, Sodium D(-)-α-(3-β -chloropropionyl-3-methyl-ureido)-benzylpenicillin] | 1.56 units/ml | 3.12 units/ml | 50 units/ml | 25 units/ml | 25 units/ml | 100 units/ml | 25 units/ml | 100 units/ml | > 400 | 100 units/ml | 25 units/ml | 100 units/ml |  | 50 | Serum level ([4]; 50.000 units s.c., 10 mins.): 50 units/ml of serum; Serum level ([4]; 50.000 units s.c., 20 mins.): 10 units/ml of serum; Serum level ([4]; 150.000 units s.c., 15 mins.): 42 units/ml of serum; Serum level ([4]; 150.000 units s.c., 30 mins.): 26 units/ml of serum; Serum level ([4]; 150.000 units s.c., 60 mins.): < 10 units/ml of serum
C=CCN(C(C)=O)C(=O)N[C@@H](C(=O)N[C@@H]1C(=O)N2[C@@H]1SC(C)(C)[C@@H]2C(=O)O)c1ccccc1 [Example 86, Sodium D(-)-α-(3-acetyl-3-allyl-ureido)-benzylpenicillin] | < 0.78 units/ml | 12.5 units/ml | 50 units/ml | 25 units/ml | 50 units/ml | 100 units/ml | 25 units/ml | 50 units/ml | > 400 | 100 units/ml | 50 units/ml | 50 units/ml |  |  | LD50 [1, 5]: > 3000 mg/kg
CN(C)C(=O)N(C)C(=O)N[C@@H](C(=O)N[C@@H]1C(=O)N2[C@@H]1SC(C)(C)[C@@H]2C(=O)O)c1ccccc1 [Example 94, Sodium D(-)-α-(3-dimethylaminocarbonyl-3-methyl-ureido)benzylpenicillin] | 3.12 units/ml | 12.5 units/ml | 100 units/ml | 100 units/ml | 100 units/ml | 200 units/ml | 50 units/ml | 200 units/ml | > 400 | 200 units/ml | 100 units/ml | 50 units/ml |  |  | LD50 [1]: 4000 mg/kg
Cc1onc(-c2c(Cl)cccc2Cl)c1C(=O)N[C@@H]1C(=O)N2[C@@H]1SC(C)(C)[C@@H]2C(=O)O [Dicycloxacillin, reference compound] |  |  |  |  |  |  |  |  |  |  |  |  |  |  | Acute toxicity (LD50) [1, 5]: 900 mg/kg
C=CCOC(=O)N(C)C(=O)N[C@@H](C(=O)N[C@@H]1C(=O)N2[C@@H]1SC(C)(C)[C@@H]2C(=O)O)c1ccccc1 [Example 68, Sodium D(-)-α-(3-allyloxycarbonyl-3-methyl-ureido)-benzylpenicillin] | < 0.78 units/ml | 3.12 units/ml | 12.5 units/ml | 12.5 units/ml | 6.25 units/ml | 50 units/ml | 12.5 units/ml | 25 units/ml | > 400 | 50 units/ml | 12.5 units/ml | 25 units/ml | identical within the limit of error | 50 | MIC (Staph. aureus 133; listed as (B) of Example 30): 0.78 units/ml; MIC (Psdm. aerug. Walter; listed as (B) of Example 30): 12.5 units/ml; MIC (Psdm. aerug. Bonn; listed as (B) of Example 30): 12.5 units/ml; MIC (E. coli 183/58; listed as (B) of Example 30): 6.25 units/ml; MIC ([2]; listed as (B) of Example 30): 50 units/ml; MIC (E. coli 14; listed as (B) of Example 30): 3.12 units/ml; MIC (E. coli C 165; listed as (B) of Example 30): 12.5 units/ml; MIC (Klebsiella 63; listed as (B) of Example 30): 25 units/ml; MIC (Klebsiella K 10; listed as (B) of Example 30): 50 units/ml; MIC (Proteus vulg. 1017; listed as (B) of Example 30): 12.5 units/ml; MIC (Proteus vulg. 3400; listed as (B) of Example 30): 25 units/ml
CCN(C(=O)N[C@@H](C(=O)N[C@@H]1C(=O)N2[C@@H]1SC(C)(C)[C@@H]2C(=O)O)c1ccccc1)C(=O)c1ccccc1 [Example 60, Sodium D(-)-α-(3-benzoyl-3-ethyl-ureido)-benzylpenicillin] | < 0.78 units/ml | 6.25 units/ml | 50 units/ml | 25 units/ml | 12.5 units/ml | 100 units/ml | 25 units/ml | 50 units/ml | > 400 | 100 units/ml | 25 units/ml | 50 units/ml |  | 50 | LD50 [1, 5]: 1500 mg/kg
